In PMC13489962, “Small-molecule modulation of β-arrestins” (Nature, 2026):

Legend:
βARR1 L129G = target: T1, βARR1 L129G (Rattus norvegicus, UniProt P29066, L129G); assay: ITC binding to βARR1 mutant L129G; conditions: 25 °C
T1 construct: βARR1 or βARR2 construct, with their C terminus truncated (at amino acid 393 or 394, respectively); GST (pGEX4T1) (N, cleaved yes); made in house; host or cells: E. coli BL21 (DE3) pLysS
Procedure: (§1) The expression and purification of β-arrestins have been described previously[44],[62]–[64]. In brief, E. coli BL21 (DE3) pLysS cells (New England Biolabs: C2527I) carrying pGEX4T1-Rattus norvegicus βARR1 or βARR2 construct, with their C terminus truncated (at amino acid 393 or 394, respectively), were cultured in Terrific Broth (Teknova) medium at 37 °C. After OD600 reached 0.6–0.8, the cells were induced with 0.1 mM isopropyl-β-D-thiogalactopyranoside (IPTG) at 18 °C overnight. Bacteria were collected by centrifugation (4,000 rpm), and cell pellets were resuspended in lysis buffer (20 mM HEPES, pH 8, 150 mM NaCl, 10% glycerol, 1 mM EDTA, 0.2 mM dithiothreitol (DTT), 1 mM phenylmethylsulfonyl fluoride, and 1 mM benzamidine) at 4 °C for 1 h. […] Eluted fractions were analysed by SDS–PAGE, pooled, concentrated using 30 kDa MWCO Amicon Ultra-15 Centrifugal Filter devices, flash-frozen in liquid nitrogen, and stored in aliquots at −80 °C. […] Protein concentrations for each protein were determined by ultraviolet absorption at 280 nm and extinction coefficients estimated using the ExPASy ProtParam tool[67].
(§2) ITC measurements were performed on a MicroCal iTC200 system at 25 °C. […] Protein concentrations were determined by spectrophotometry at 280 nm, using extinction coefficients calculated from each protein sequence via the ProtParam program. […]

βARR1 R285A = target: T2, βARR1 R285A (Rattus norvegicus, UniProt P29066, R285A); assay: ITC binding to βARR1 mutant R285A
T2 construct: βARR1 or βARR2 construct, with their C terminus truncated (at amino acid 393 or 394, respectively); GST (pGEX4T1) (N, cleaved yes); made in house; host or cells: E. coli BL21 (DE3) pLysS
T2 sequence (P29066 1-393 R285A): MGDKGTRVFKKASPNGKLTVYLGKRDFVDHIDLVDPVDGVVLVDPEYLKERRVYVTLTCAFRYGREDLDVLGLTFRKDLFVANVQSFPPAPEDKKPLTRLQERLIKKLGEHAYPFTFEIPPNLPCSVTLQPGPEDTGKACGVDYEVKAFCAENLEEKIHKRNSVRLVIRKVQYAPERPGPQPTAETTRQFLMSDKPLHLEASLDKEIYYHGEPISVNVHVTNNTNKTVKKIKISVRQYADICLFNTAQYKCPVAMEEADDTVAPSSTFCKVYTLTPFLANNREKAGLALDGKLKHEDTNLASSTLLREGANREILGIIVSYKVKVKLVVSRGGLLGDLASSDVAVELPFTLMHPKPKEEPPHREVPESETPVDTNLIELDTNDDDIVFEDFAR
Procedure: as §1, §2

T1 sequence (P29066 1-393 L129G): as the sequence (P29066 1-393 R285A) above, with L129G, A285R counted along it

C=C1C(=O)[C@]23[C@H](O)[C@H]1CC[C@H]2[C@@]12CO[C@]3(O)[C@@H](O)[C@@H]1C(C)(C)CC[C@@H]2O [Cmpd-5, (1S,4aR,5S,6S,6aR,9S,11aS,11bS,14R)-1,5,6,14-tetrahydroxy−4,4-dimethyl-8-methylenedecahydro-1H-6,11b-(epoxymethano)-6a,9-methanocyclohepta[a]naphthalen-7(8H)-one]
Kd (βARR1 L129G): 2 ± 0.7 µM | Kd fold over WT, βARR1 R285A (βARR1 R285A): 46.5 fold | ΔH, βARR1 R285A (βARR1 R285A; 25 °C): -1.5 kcal/mol
